# Experimental data published in paper PMC6364417, “Kinase inhibitor library screening identifies synergistic drug combinations effective in sensitive and resistant melanoma cells” (Journal of Experimental & Clinical Cancer Research : CR, 2019).
# Assays:
# Assay in all cases: Kinase inhibitor library screening, PrestoBlue cell viability, 1 or 10 μM, 72 h
# [1] = test system: A375-XP cells (Vemurafenib-resistant); conditions: A375 XP
# Method: (§1) After 72 h of treatment, cell viability was assessed using the PrestoBlue Cell Viability Reagent (ThermoFisher Scientific). Measurements were performed with the CLARIOstar Monochromator microplate reader (BMG Labtech).
# (§2) Kinase inhibitor library screening. […] Each cell line was treated in its sensitive form (parental), and also as 2 resistant derivatives, which were made resistant to either Vemurafenib (XP) or Dabrafenib (GP). Drugs were added at 2 different concentrations, 1 and 10 μM, for 72 h and cell viability was assessed using the PrestoBlue Cell Viability assay. Results are depicted as % viability compared to untreated cells. Each cell line was analyzed at least in duplicate. […] (XLSX 95 kb)
# [2] = test system: IGR37-XP cells (Vemurafenib-resistant); conditions: IGR37 XP
# Method: as §1, §2
# [3] = test system: 501Mel-GP cells (Dabrafenib-resistant); conditions: 501Mel GP
# Method: as §1, §2
# [4] = test system: 501Mel-XP cells (Vemurafenib-resistant); conditions: 501Mel XP
# Method: as §1, §2
# [5] = test system: IGR37-GP cells (Dabrafenib-resistant); conditions: IGR37 GP
# Method: as §1, §2
# A375 cells (parental) = conditions: A375 Parental
# Method: as §1, §2
# IGR37 cells (parental) = conditions: IGR37 Parental
# Method: as §1, §2
# 501Mel cells (parental) = conditions: 501Mel Parental
# Method: as §1, §2
# [6] = test system: A375-GP cells (Dabrafenib-resistant); conditions: A375 GP
# Method: as §1, §2
smiles,measurement,setting,value
COCCNCc1ccc(-c2cc3nccc(Oc4ccc(NC(=S)NC(=O)Cc5ccc(F)cc5)cc4F)c3s2)nc1 [MGCD-265],cell viability (kinase inhibitor library screening),"[1]; 1μΜ, 72 h",104.8%
same,cell viability (kinase inhibitor library screening),"[1]; 10μΜ, 72 h",98.2%
same,cell viability (kinase inhibitor library screening),"[2]; 1μΜ, 72 h",91.5%
same,cell viability (kinase inhibitor library screening),"[2]; 10μΜ, 72 h",50.3%
same,cell viability (kinase inhibitor library screening),"[3]; 1μΜ, 72 h",89.8%
same,cell viability (kinase inhibitor library screening),"[3]; 10μΜ, 72 h",68.8%
same,cell viability (kinase inhibitor library screening),"[4]; 1μΜ, 72 h",76.7%
same,cell viability (kinase inhibitor library screening),"[4]; 10μΜ, 72 h",64.2%
same,cell viability (kinase inhibitor library screening),"[5]; 1μΜ, 72 h",91.8%
same,cell viability (kinase inhibitor library screening),"[5]; 10μΜ, 72 h",78.3%
same,cell viability (kinase inhibitor library screening),"A375 cells (parental); 10μΜ, 72 h",83.0%
same,cell viability (kinase inhibitor library screening),"IGR37 cells (parental); 1μΜ, 72 h",96.8%
same,cell viability (kinase inhibitor library screening),"IGR37 cells (parental); 10μΜ, 72 h",92.1%
same,cell viability (kinase inhibitor library screening),"501Mel cells (parental); 1μΜ, 72 h",104.7%
same,cell viability (kinase inhibitor library screening),"501Mel cells (parental); 10μΜ, 72 h",94.4%
same,cell viability (kinase inhibitor library screening),"[6]; 1μΜ, 72 h",95.5%
same,cell viability (kinase inhibitor library screening),"[6]; 10μΜ, 72 h",85.6%
C[C@@H](Oc1cc(-c2cnn(C3CCNCC3)c2)cnc1N)c1c(Cl)ccc(F)c1Cl [Crizotinib (PF-02341066)],cell viability (kinase inhibitor library screening),"[1]; 1μΜ, 72 h",99.3%
same,cell viability (kinase inhibitor library screening),"[1]; 10μΜ, 72 h",17.2%
same,cell viability (kinase inhibitor library screening),"[2]; 1μΜ, 72 h",100.4%
same,cell viability (kinase inhibitor library screening),"[2]; 10μΜ, 72 h",1.5%
same,cell viability (kinase inhibitor library screening),"[3]; 1μΜ, 72 h",80.0%
same,cell viability (kinase inhibitor library screening),"[3]; 10μΜ, 72 h",-0.355%
same,cell viability (kinase inhibitor library screening),"[4]; 1μΜ, 72 h",62.4%
same,cell viability (kinase inhibitor library screening),"[4]; 10μΜ, 72 h",-0.46%
same,cell viability (kinase inhibitor library screening),"[5]; 1μΜ, 72 h",97.3%
same,cell viability (kinase inhibitor library screening),"[5]; 10μΜ, 72 h",6.1%
same,cell viability (kinase inhibitor library screening),"A375 cells (parental); 10μΜ, 72 h",20.5%
same,cell viability (kinase inhibitor library screening),"A375 cells (parental); 1μΜ, 72 h",98.4%
same,cell viability (kinase inhibitor library screening),"IGR37 cells (parental); 1μΜ, 72 h",93.8%
same,cell viability (kinase inhibitor library screening),"IGR37 cells (parental); 10μΜ, 72 h",8.1%
same,cell viability (kinase inhibitor library screening),"501Mel cells (parental); 1μΜ, 72 h",97.3%
same,cell viability (kinase inhibitor library screening),"501Mel cells (parental); 10μΜ, 72 h",0.235%
same,cell viability (kinase inhibitor library screening),"[6]; 1μΜ, 72 h",94.9%
same,cell viability (kinase inhibitor library screening),"[6]; 10μΜ, 72 h",14.4%
O=C(NCc1ccccc1)c1csc(Nc2ccncn2)n1 [Thiazovivin],cell viability (kinase inhibitor library screening),"[1]; 10μΜ, in %",107.7
same,cell viability (kinase inhibitor library screening),"[2]; 1μΜ, in %",98.5
same,cell viability (kinase inhibitor library screening),"[2]; 10μΜ, in %",87.0
same,cell viability (kinase inhibitor library screening),"[3]; 1μΜ, in %",104.3
same,cell viability (kinase inhibitor library screening),"[3]; 10μΜ, in %",43.8
same,cell viability (kinase inhibitor library screening),"[4]; 10μΜ, in %",28.9
same,cell viability (kinase inhibitor library screening),"[5]; 1μΜ, in %",92.4
same,cell viability (kinase inhibitor library screening),"[5]; 10μΜ, in %",93.5
same,cell viability (kinase inhibitor library screening),"A375 cells (parental); 1μΜ, in %",103.7
same,cell viability (kinase inhibitor library screening),"A375 cells (parental); 10μΜ, in %",81.8
same,cell viability (kinase inhibitor library screening),"IGR37 cells (parental); 1μΜ, in %",97.5
same,cell viability (kinase inhibitor library screening),"IGR37 cells (parental); 10μΜ, in %",89.5
same,cell viability (kinase inhibitor library screening),"501Mel cells (parental); 1μΜ, in %",107.2
same,cell viability (kinase inhibitor library screening),"501Mel cells (parental); 10μΜ, in %",76.8
same,cell viability (kinase inhibitor library screening),"[6]; 1μΜ, in %",96.7
same,cell viability (kinase inhibitor library screening),"[6]; 10μΜ, in %",87.9
CO[C@H]1C[C@@H]2CC[C@@H](C)[C@@](O)(O2)C(=O)C(=O)N2CCCC[C@H]2C(=O)O[C@H]([C@H](C)C[C@@H]2CC[C@@H](OP(C)(C)=O)[C@H](OC)C2)CC(=O)[C@H](C)/C=C(\C)[C@@H](O)[C@@H](OC)C(=O)[C@H](C)C[C@H](C)/C=C/C=C/C=C/1C [Deforolimus (Ridaforolimus)],"Cell viability in kinase inhibitor library screening, A375 XP, 1μΜ","[1]; 1μΜ, 72 h",79.9
same,"Cell viability in kinase inhibitor library screening, A375 XP, 10μΜ","[1]; 10μΜ, 72 h",76.9
same,"Cell viability in kinase inhibitor library screening, IGR37 XP, 10μΜ","[2]; 10μΜ, 72 h",56.1%
same,"Cell viability in kinase inhibitor library screening, IGR37 XP, 1μΜ","[2]; 1μΜ, 72 h, in %",95.0
same,"Cell viability in kinase inhibitor library screening, 501Mel GP, 1μΜ","[3]; 1μΜ, 72 h, in %",66.5
same,"Cell viability in kinase inhibitor library screening, 501Mel GP, 10μΜ","[3]; 10μΜ, 72 h, in %",55.6
same,"Cell viability in kinase inhibitor library screening, 501Mel XP, 1μΜ","[4]; 1μΜ, 72 h, in %",54.3
same,"Cell viability in kinase inhibitor library screening, 501Mel XP, 10μΜ","[4]; 10μΜ, 72 h, in %",40.7
same,"Cell viability in kinase inhibitor library screening, IGR37 GP, 10μΜ","[5]; 10μΜ, 72 h",76.8%
same,"Cell viability in kinase inhibitor library screening, IGR37 GP, 1μΜ","[5]; 1μΜ, 72 h, in %",90.2
same,"Cell viability in kinase inhibitor library screening, A375 Parental, 10μΜ","A375 cells (parental); 10μΜ, 72 h",73.5
same,"Cell viability in kinase inhibitor library screening, A375 Parental, 1μΜ","A375 cells (parental); 1μΜ, 72 h",82.1
same,"Cell viability in kinase inhibitor library screening, IGR37 Parental, 1μΜ","IGR37 cells (parental); 1μΜ, 72 h, in %",82.2
same,"Cell viability in kinase inhibitor library screening, IGR37 Parental, 10μΜ","IGR37 cells (parental); 10μΜ, 72 h, in %",86.0
same,"Cell viability in kinase inhibitor library screening, 501Mel Parental, 1μΜ","501Mel cells (parental); 1μΜ, 72 h, in %",84.8
same,"Cell viability in kinase inhibitor library screening, 501Mel Parental, 10μΜ","501Mel cells (parental); 10μΜ, 72 h, in %",82.7
same,"Cell viability in kinase inhibitor library screening, A375 GP, 1μΜ","[6]; 1μΜ, 72 h",79.3
same,"Cell viability in kinase inhibitor library screening, A375 GP, 10μΜ","[6]; 10μΜ, 72 h",72.3
